This note sets out measurements from patent publication EP0656355A1, “BIPHENYLMETHANE DERIVATIVE AND MEDICINE CONTAINING THE SAME” (WAKUNAGA SEIYAKU KABUSHIKI KAISHA, priority 1992, dated 1994).

In assay [1] the test system is angiotensin II contraction in longitudinal ileac muscles. The assay can be described thus: Inhibitory activity to angiotensin II contraction in longitudinal ileac muscles excised from a guinea pig. Particulars: Cavia porcellus, 20 min; 50% contraction inhibition concentration; 10⁻⁸M angiotensin II; test compound reacted for 20 minutes; guinea pig ileum longitudinal muscle; read-out: IC₅₀. In kind it is cell-based, Hartley male guinea pig. The protocol:
(2) Inhibitory activity to angiotensin II contraction in longitudinal ileac muscles excised from a guinea pig
A Hartley male guinea pig (350-450 g in weight) was sacrificed under exsanguination, followed by the excision of its ileum.
A longitudinal muscle tissue (2 cm long) was prepared from the ileum in a manner known per se in the art. The sample was suspended in a 20-mℓ Magnus cylinder filled with a Tylode solution [composition (mM): NaCℓ 137, KCℓ 2.7, CaCℓ₂ 1.88, MgCℓ₂ 1.1, NaH₂PO₄ 0.4, NaH₂CO₃ 11.8 and glucose 5.6). The Tylode solution was incubated at 37°C and saturated with a mixed gas consisting of 95% O₂ + 5% CO₂. Using an isometric transducer ("TB-611T", manufactured by Nihon Kohden Corporation), variations in contraction were measured. The measurement results were recorded on a computer ("PC-9801", manufactured by NEC Corporation).
Under a load of 0.5 g initial tension, the longitudinal muscle sample was equilibrated in a nutrient solution for about one hour while being washed therewith at intervals of 15 minutes. Then, contracture by the administration of 80 mM of KCℓ was repeated twice. After conforming that the contraction occurred stably, the following test was conducted.
First, 10^-8M angiotensin II was administered to the sample and its maximum contraction was recorded. The test compound was then administered to the sample and they were reacted for 20 minutes. Administered again was 10⁻⁸M angiotensin II and the maximum contraction was measured. […] This test was repeated at increased concentrations of the test compound. A 50% contraction inhibition concentration (IC₅₀) was determined in accordance with a linear regressive calculation of the contraction inhibition rates.

The target in assay [2] is T1, angiotensin II (AII) receptor (Rattus norvegicus, UniProt P25095).
T1 construct: Vascular smooth muscle cells, which had been separated from the aorta of a male Wistar rat and cultured on a 24-well multiplate; endogenous in cells; host or cells: primary cultured vascular smooth muscle cells from the aorta of a male Wistar rat
T1 sequence (P25095 1-359): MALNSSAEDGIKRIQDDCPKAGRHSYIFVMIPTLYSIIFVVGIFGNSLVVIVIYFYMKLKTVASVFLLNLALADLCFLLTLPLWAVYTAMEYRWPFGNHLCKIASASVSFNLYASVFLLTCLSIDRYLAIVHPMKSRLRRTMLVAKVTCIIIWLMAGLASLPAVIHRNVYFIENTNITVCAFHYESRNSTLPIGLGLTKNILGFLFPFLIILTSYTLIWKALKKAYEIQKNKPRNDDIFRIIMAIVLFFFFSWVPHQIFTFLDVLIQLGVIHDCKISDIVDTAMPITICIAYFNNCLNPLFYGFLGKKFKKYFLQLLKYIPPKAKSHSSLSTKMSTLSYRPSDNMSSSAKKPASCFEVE
The assay can be described thus: Inhibitory action against the binding with angiotensin II (AII) receptor, 125I-AII competition on cultured rat aortic smooth muscle cells. On the set-up: species or system male Wistar rat. As to conditions: 50% substitution of ¹²⁵I-AII specific binding; ¹²⁵I-AII 2 x 10⁻¹⁰M; one hour at room temperature; rat vascular smooth muscle cells; read-out: IC₅₀. The procedure: (1) Inhibitory action against the binding with angiotensin II (AII) receptor, using cultured rat aortic smooth muscle cells The present test was conducted in accordance with the method reported by Chiu et al. in European Journal of Pharmacology, 157, 13-21(1988), though after some modifications. […] To each well, ¹²⁵I-AII (final concentration: 2 x 10⁻¹⁰M) was added together with or without a test compound to give a total volume of 0.2 mℓ. Then the wells were incubated for one hour at room temperature to make the ¹²⁵I-AII and the test compound competitively bind to the vascular smooth muscle cells. Each well was thereafter washed with an ice-cold buffer three times to remove unbound ¹²⁵I-AII. To the cells, 0.2 mℓ of a 1 mol/ℓ solution of sodium hydroxide was added to solubilize the bound ¹²⁵I-AII. A bound amount of ¹²⁵I-AII contained in the resulting cell solution was measured by a gamma counter. The above test was conducted for each compound at different concentrations of 3 doses or more. The inhibition rate against the specific binding with ¹²⁵I-AII at each concentration was calculated in accordance with an equation to be set out subsequently herein.

Turning to `CCCc1nn(Cc2ccc(-c3ccccc3-c3nnn[nH]3)cc2)c(=NC(=O)C2=C(C(=O)O)CCC2)s1` [Compound No.131, 2-[[5-n-Propyl-3-[2'-(1H-tetrazol-5-yl)biphenyl-4-yl]methyl-1,3,4-thiadiazoline-2-yliden]aminocarbonyl]-1-cyclopenten carboxylic acid], the IC50 in assay [1] was 0.84 nM.

Consider `O=C(N=c1sc(-c2ccccc2)nn1Cc1ccc(-c2ccccc2-c2nnn[nH]2)cc1)C1CC1` [Compound No.27, 2-Cyclopropylcarbonylimino-5-phenyl-3-[2'-(1H-tetrazol-5-yl)biphenyl-4-yl]methyl-1,3,4-thiadiazoline], for which the IC50 in assay [1] is 10 nM. For `CCCC(=O)N(Cc1ccc(-c2ccccc2-c2nn[nH]n2)cc1)c1nnc(C2CC2)s1` [Compound No.12, 2-[N-Butyryl-N-(2'-(1H-tetrazol-5-yl)biphenyl-4-yl)methyl]amino-5-cyclopropyl-1,3,4-thiadiazole], the IC50 in assay [2] came to 32 nM; in assay [1], 28 nM. For the compound `CCCCc1sc(=NC(=O)C2CC2)n(Cc2ccc(-c3ccccc3-c3nnn[nH]3)cc2)c1C(=O)O` [Compound No.245, 2-Cyclopropylcarbonylimino-3-[2'-(1H-tetrazol-5-yl)biphenyl-4-yl]methyl-5-n-butylthiazoline-4-carboxylic acid], the IC50 in assay [1] worked out at 0.35 nM.

With `CCCCc1nn(Cc2ccc(-c3ccccc3-c3nnn[nH]3)cc2)c(=NC(=O)CC)s1` [Compound No.7, 2-Propionylimino-5-n-butyl-3-[2'-(1H-tetrazol-5-yl)biphenyl-4-yl]methyl-1,3,4-thiadiazoline], the IC50 in assay [2] was 6.8 nM; in assay [1] it was 21 nM. Take `CCCc1sc(=NC(=O)C2CC2)n(Cc2ccc(-c3ccccc3-c3nnn[nH]3)cc2)c1C(=O)O` [Compound No.244, 2-Cyclopropylcarbonylimino-3-[2'-(1H-tetrazol-5-yl)biphenyl-4-yl]methyl-5-n-propylthiazoline-4-carboxylic acid]: the IC50 in assay [1] was 0.76 nM. In the case of `CCCCC(=O)N(Cc1ccc(-c2ccccc2-c2nn[nH]n2)cc1)c1nnc(C2CC2)s1` [Compound No.34, 2-[N-Valeryl-N-(2'-(1H-tetrazol-5-yl)biphenyl-4-yl)methyl]amino-5-cyclopropyl-1,3,4-thiadiazole], in assay [2], the IC50 is 10 nM.

For the compound `CCc1nn(Cc2ccc(-c3ccccc3-c3nnn[nH]3)cc2)c(=NS(=O)(=O)c2ccccc2C(=O)OC)s1` [Compound No.151, 2-[[5-Ethyl-3-[2'-(1H-tetrazol-5-yl)biphenyl-4-yl]methyl-1,3,4-thiadiazoline-2-yliden]aminosulfonyl]benzoic acid methyl ester], the IC50 in assay [1] was 0.8 nM. `CCCCc1nnc(N(Cc2ccc(-c3ccccc3-c3nn[nH]n3)cc2)C(=O)CCC)s1` [Compound No.14, 2-[N-Butyryl-N-(2'-(1H-tetrazol-5-yl)biphenyl-4-yl)methyl]amino-5-n-butyl-1,3,4-thiadiazole]: the IC50 in assay [2] was 9.8 nM; in assay [1], 36 nM. In the case of `O=C(O)C1=C(C(=O)N=c2sc(C3CC3)nn2Cc2ccc(-c3ccccc3-c3nn[nH]n3)cc2)CCC1` [Compound No.132, 2-[[5-Cyclopropyl-3-[2'-(1H-tetrazol-5-yl)biphenyl-4-yl]methyl-1,3,4-thiadiazoline-2-yliden]aminocarbonyl]-1-cyclopetenecarboxylic acid], the IC50 in assay [1] was 0.4 nM. On the same count and under the same terms, with `O=C(O)c1ccccc1C(=O)N=c1sc(C2CC2)nn1Cc1ccc(-c2ccccc2-c2nnn[nH]2)cc1` [Compound No.137, N-[5-Cyclopropyl-3-[2'-(1H-tetrazol-5-yl)biphenyl-4-yl]methyl-1,3,4-thiadiazoline-2-yliden]phthalamic acid] the figure was 0.9 nM.

For the compound `O=C(N=c1sc(C2CC2)nn1Cc1ccc(-c2ccccc2-c2nn[nH]n2)cc1)C1CC1` [Compound No.23, 2-Cyclopropylcarbonylimino-5-cyclopropyl-3-[2'-(1H-tetrtazol-5-yl)biphenyl-4-yl]methyl-1,3,4-thiadiazoline], the IC50 in assay [2] turned out to be 31 nM. As to `CCCC(=O)N=c1sc(CC)nn1Cc1ccc(-c2ccccc2-c2nnn[nH]2)cc1` [Compound No.1, 2-Butyrylimino-5-ethyl-3-[2'-(1H-tetrazol-5-yl)biphenyl-4-yl]methyl-1,3,4-thiadiazoline], the IC50 in assay [2] was found to be 8 nM; in assay [1] it was 23 nM. Take `CCc1nn(Cc2ccc(-c3ccccc3-c3nnn[nH]3)cc2)c(=NC(=O)C2CC2)s1` [Compound No.19, 2-Cyclopropylcarbonylimino-5-ethyl-3-[2'-(1H-tetrazol-5-yl)biphenyl-4-yl]methyl-1,3,4-thiadiazoline]: the IC50 in assay [2] was 15 nM. With `CCCCC(=O)N=c1sc(CC)nn1Cc1ccc(-c2ccccc2-c2nnn[nH]2)cc1` [Compound No.31, 2-Valerylimino-5-ethyl-3-[2'-(1H-tetrazol-5-yl)biphenyl-4-yl]methyl-1,3,4-thiadiazoline], the IC50 in assay [2] was 17 nM. As for `CCCCC(=O)N(Cc1ccc(-c2ccccc2-c2nn[nH]n2)cc1)c1nnc(C)s1` [Compound No.30, 2-[N-Valeryl-N-(2'-(1H-tetrazol-5-yl)biphenyl-4-yl)methyl]amino-5-methyl-1,3,4-thiadiazole], the IC50 in assay [1] amounted to 29 nM. In the case of `CCCC(=O)N=c1sc(C2CC2)nn1Cc1ccc(-c2ccccc2-c2nnn[nH]2)cc1` [Compound No.11, 2-Butyrylimino-5-cyclopropyl-3-[2'-(1H-tetrazol-5-yl)biphenyl-4-yl]methyl-1,3,4-thiadiazoline], the IC50 in assay [2] was found to be 6.5 nM; in assay [1] it was 26 nM.

In the case of `CCc1nn(Cc2ccc(-c3ccccc3-c3nnn[nH]3)cc2)c(=NC(=O)C(F)(F)F)s1` [Compound No.50, 2-Trifluoroacetylimino-5-ethyl-3-[2'-(1H-tetrazol-5-yl)biphenyl-4-yl]methyl-1,3,4-thiadiazoline], the IC50 in assay [1] is 4.9 nM.

With `CCc1nn(Cc2ccc(-c3ccccc3-c3nnn[nH]3)cc2)c(=NC(=O)c2cscc2C(=O)O)s1` [Compound No.143, 4-[[5-Ethyl-3-[2'-(1H-tetrazol-5-yl)biphenyl-4-yl]methyl-1,3,4-thiadiazoline-2-yliden]aminocarbonyl] thiophene-3-carboxylic acid], in assay [1], the IC50 turned out to be 0.64 nM.

For `CCc1nn(Cc2ccc(-c3ccccc3-c3nnn[nH]3)cc2)c(=NC(=O)c2ccccc2Cl)s1` [Compound No.68, 2-(2-Chlorobenzoyl)imino-5-ethyl-3-[2'-(1H-tetrazol-5-yl)biphenyl-4-yl]methyl-1,3,4-thiadiazoline], in assay [2], the IC50 was 5.7 nM. Take `CCCC(=O)N(Cc1ccc(-c2ccccc2-c2nn[nH]n2)cc1)c1nnc(CC)s1` [Compound No.2, 2-[N-Butyryl-N-(2'-(1H-tetrazol-5-yl)biphenyl-4-yl)methyl]amino-5-ethyl-1,3,4-thiadiazole]: the IC50 in assay [2] worked out at 13 nM; in assay [1], 11 nM. As for `CCc1nn(Cc2ccc(-c3ccccc3-c3nnn[nH]3)cc2)c(=NC(=O)c2c(F)ccc(F)c2C(=O)O)s1` [Compound No.139, 3,6-Difluoro-N-[5-Ethyl-3-[2'-(1H-tetrazol-5-yl)biphenyl-4-yl]methyl-1,3,4-thiadiazoline-2-yliden] phthalamic acid], the IC50 in assay [1] was 7.4 nM. Consider `CCCCc1nn(Cc2ccc(-c3ccccc3-c3nnn[nH]3)cc2)c(=NC(=O)CCC)s1` [Compound No.13, 2-Butyrylimino-5-n-butyl-3-[2'-(1H-tetrazol-5-yl)biphenyl-4-yl]methyl-1,3,4-thiadiazoline], for which the IC50 in assay [2] stood at 14 nM; in assay [1], 24 nM.
